“And” between values parts separate entries of the source, which are not always exact repeats. Equal entries are not always repeated. “Also recorded” adds a separate entry of the source. Where two headings read alike, the source gives them in different places.
Key:
[1] = system: untransfected HEK-293 cells; test: Negative controls of the functional assays: HEK-293 cells without DREADD; format: cell-based, human; conditions: for functional response, BRET (Go-alpha-Rluc8, beta1, gamma2-mVenus), no DREADD / functional response, GCaMP6f, no DREADD: HEK-293 cells
Protocol: BRET assays were performed to detect receptor ligand-induced Gαo1 protein activation. […] Forty-eight hour after transfection cells were harvested, washed and resuspended in phosphate-buffered saline (PBS). Approximately, 200,000 cells/well were distributed in 96-well plates, and 5 µM Coelenterazine H (substrate for luciferase) was added to each well. Five minutes after addition of Coelenterazine H, ligands were added to each well. The fluorescence of the acceptor was quantified (excitation at 500 nm and emission at 540 nm for 1-s recordings) in a PheraStar FSX plate reader (BMG Labtech) to confirm the constant expression levels across experiments. In parallel, the BRET signal from the same batch of cells was determined as the ratio of the light emitted by mVenus (510–540 nm) over that emitted by RLuc (485 nm). Results were calculated for the BRET change (BRET ratio for the corresponding drug minus BRET ratio in the absence of the drug) 5 min after the addition of the ligands.
Intracellular Ca^2+ concentration was monitored using the fluorescent Ca^2+ biosensor GCaMP6f. HEK-293 cells were transfected with 7 µg/dish of the cDNA encoding for hM3Dq (Addgene #89149) or hM4Di (Addgene #89150) and 7 µg/dish of GCaMP6. Forty-eight hours after transfection, cells were harvested, washed, resuspended in Mg^2+-free Locke’s buffer pH 7.4 (154 mM NaCl, 5.6 mM KCl, 3.6 mM NaHCO3, 2.3 mM CaCl2, and 5 mM HEPES) containing 5.6 mM of glucose and approximately 200,000 cells/well were distributed in black 96-well plates. Increasing concentrations of the indicated compound were added to the cells and fluorescence intensity (excitation at 480 nm, emission at 530 nm) was measured at 18-s intervals during 250 s using a PHERAstar FSX (BMG Labtech). The net change in intracellular Ca^2+ concentration was expressed as F − F0 where F is the fluorescence at a given concentration of ligand and F0 is the average of the baseline values (fluorescence values of buffer-treated wells).

[2] = Brain and serum concentrations in mice after IP injection (LC-MS/MS); format: in vivo, mouse; conditions: for brain/serum concentration ratio: 1 mg kg-1 IP; for Kp: C57BL/6J, mouse, brain/serum, ip, 0.1 mg kg-1, mice, read-out: brain/serum concentration ratio; for Kp / brain to serum concentration ratio / brain concentration, mean / serum concentration, mean: 0.1 mg kg-1 IP; for brain to serum concentration ratio: 30 min
Protocol: Monkey blood and CSF samples were collected from totally implanted subcutaneous access ports (Access Technologies, Virginia), connected to catheters indwelling in the femoral artery or intrathecal space of the spinal column, respectively. Rodent blood samples and brains were collected immediately following sacrifice at the indicated time points after intraperitoneal injection (10 ml kg^−1) in buffered saline. CSF was immediately frozen on dry ice and stored at −80 °C. Blood samples were allowed to coagulate for 15 min and then centrifuged at 4 °C for 15 min. Serum was collected from the supernatant and stored at a minimum of −30 °C until extraction. To 25 µl of serum, 5 µl of internal standard and 110 µl of methanol were added. Samples were centrifuged for 10 min at 16,200×g at 4 °C and the supernatant was transferred to the autosampler vial for analysis. Brains were cut in half and weighed prior to sample preparation. Half brains were homogenized in 490 µl of 85% ethanol: 15% water containing 0.1% formic acid and 5 µl of internal standard using a polytron homogenizer and centrifuged for 10 min at 16,200×g at 4 °C. A 300 µl of supernatant was dried under a stream of nitrogen and resuspended in 150 µl methanol. The resuspended solution was then centrifuged and 100 µl of supernatant was transferred to the autosampler vial for analysis.
Data were acquired using a Nexera XR HPLC (Shimadzu) coupled with a QTRAP 6500 (SCIEX), and was analyzed with Analyst 1.6 (SCIEX). The positive-ion mode data were obtained using multiple reaction monitoring (MRM). The instrumental source setting for curtain gas, ion spray voltage, temperature, ion source gas 1, and ion source gas 2 were 30 psi, 5500 V, 500 C, […], respectively.
Mobile phase A consisted of water containing 0.1% formic acid and mobile phase B was methanol containing 0.1% formic acid. […] The injection volume per sample was 10 μl. Samples were kept at 4 °C in the autosampler tray prior to injection.
The data were measured using standard curves and quality controls, but it was not validated to ICH guidelines. […] Quality control standards (low, middle and high) were prepared by adding the spiking standard to solution to 25 μl of serum and/or a half-brain and relative values are reported.

hM3Dq = hM3Dq (Homo sapiens, UniProt P20309, A239G/Y149C); test: Intracellular Ca2+ assay (GCaMP6f) in HEK-293 cells transfected with hM3Dq; format: cell-based; design: host or cells: HEK-293; conditions: for hM3Dq activation, concentration-response points: replicates; for EC50: fluorescent assay in HEK-293 cells
hM3Dq, sequence (P20309 whole entry Y149C/A239G): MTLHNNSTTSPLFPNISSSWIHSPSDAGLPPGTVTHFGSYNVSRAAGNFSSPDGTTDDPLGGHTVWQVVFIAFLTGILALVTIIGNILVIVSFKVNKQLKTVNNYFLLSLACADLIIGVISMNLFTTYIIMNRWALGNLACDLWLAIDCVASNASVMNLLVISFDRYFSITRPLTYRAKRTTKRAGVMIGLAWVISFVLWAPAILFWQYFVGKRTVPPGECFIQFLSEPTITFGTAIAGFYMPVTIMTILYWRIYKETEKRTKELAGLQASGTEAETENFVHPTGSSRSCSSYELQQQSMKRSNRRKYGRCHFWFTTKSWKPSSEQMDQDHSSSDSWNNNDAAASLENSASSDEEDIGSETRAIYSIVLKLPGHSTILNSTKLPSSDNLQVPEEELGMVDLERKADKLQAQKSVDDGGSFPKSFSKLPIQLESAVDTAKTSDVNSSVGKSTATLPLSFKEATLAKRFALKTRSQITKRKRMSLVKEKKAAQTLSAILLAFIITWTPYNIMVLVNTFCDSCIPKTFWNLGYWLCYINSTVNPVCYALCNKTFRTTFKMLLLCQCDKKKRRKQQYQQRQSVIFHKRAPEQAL
Protocol: The indicated amount of cDNA was transfected into HEK-293 cells using polyethylenimine (PEI; Sigma-Aldrich) in a 1–2 DNA:PEI ratio. Cell harvesting for radioligand binding experiments or signaling assays were performed approximately 48 h after transfection.
Intracellular Ca^2+ concentration was monitored using the fluorescent Ca^2+ biosensor GCaMP6f. […] The net change in intracellular Ca^2+ concentration was expressed as F − F0 where F is the fluorescence at a given concentration of ligand and F0 is the average of the baseline values (fluorescence values of buffer-treated wells).

| SMILES | functional response in HEK-293 cells lacking DREADDs [1] | functional response, BRET (Go-alpha-Rluc8, beta1, gamma2-mVenus), no DREADD [1] | functional response, GCaMP6f, no DREADD [1] | Kp ([2]; time 10) | Kp ([2]; time 30) | Kp ([2]; time 60) | Kp ([2]; time 120) | Kp ([2]; time 240) | brain to serum concentration ratio ([2]; mice) | brain concentration, mean ([2]; mice, time 10) | serum concentration, mean ([2]; mice, time 10) | brain concentration, mean ([2]; mice, time 30) | serum concentration, mean ([2]; mice, time 30) | brain concentration, mean ([2]; mice, time 60) | serum concentration, mean ([2]; mice, time 60) | brain concentration, mean ([2]; mice, time 120) | serum concentration, mean ([2]; mice, time 120) | brain concentration, mean ([2]; mice, time 240) | serum concentration, mean ([2]; mice, time 240) | EC50 (hM3Dq) | also measured |
| --- | --- | --- | --- | --- | --- | --- | --- | --- | --- | --- | --- | --- | --- | --- | --- | --- | --- | --- | --- | --- | --- |
| c1ccc2c(c1)N=C(N1CCNCC1)c1ccccc1N2 [C21] | Neither clozapine nor C21 produced detectable functional responses | did not show any functional response | did not show any functional response |  |  |  |  |  |  |  |  |  |  |  |  |  |  |  |  |  | brain/serum concentration ratio ([2]; mice, time 10): 0.1059; brain/serum concentration ratio ([2]; mice, time 30): 0.2543; brain/serum concentration ratio ([2]; mice, time 60): 0.2987; brain/serum concentration ratio ([2]; mice, time 120): 0.4106; brain/serum concentration ratio ([2]; mice, time 240): 0.6284; brain/serum ratio ([2]; mice, systemic administration): low brain/serum ratios; hM3Dq activation, concentration-response points (hM3Dq; Log [compound] -5): 93.1143 and 77.3513 and 111.083; hM3Dq activation, concentration-response points (hM3Dq; Log [compound] -6): 96.4744 and 82.7674 and 98.8645; hM3Dq activation, concentration-response points (hM3Dq; Log [compound] -7): 74.044 and 103.149 and 78.6539; hM3Dq activation, concentration-response points (hM3Dq; Log [compound] -8): 83.0838 and 91.1589 and 81.1662; hM3Dq activation, concentration-response points (hM3Dq; Log [compound] -9): 6.817 and 0.07299 and 9.557; hM3Dq activation, concentration-response points (hM3Dq; Log [compound] -10): -3.555 and -5.9944 and 2.166; hM3Dq activation, concentration-response points (hM3Dq; Log [compound] -11): -13.1516 and -2.046 and 1.55; hM3Dq activation, concentration-response points (hM3Dq; Log [compound] -12): -8.693 and -2.2785 and 8.813; hM3Dq-mediated intracellular Ca2+ increases (hM3Dq; transfected HEK-293 cells): potent intracellular Ca^2+ increases comparable to that of clozapine |
| CCN1CCN(C2=Nc3cc(Cl)ccc3Nc3cccc(F)c32)CC1 [JHU37152, 8-Chloro-11-(4-ethylpiperazin-1-yl)-1-fluoro-5H-dibenzo[b,e][1,4]diazepine] | no responses were observed; also recorded: did not produce any agonistic effect | did not show any functional response | did not show any functional response | 3.52 | 6.76 | 5.99 | 4.52 | 3.05 | ~eightfold higher in the brain than serum | 58.5075 | 16.6091 | 52.9484 | 6.63 | 40.9216 | 6.9214 | 7.985 | 2.387 | 2.907 | 1.533 | 5 nM |  |
| CCN1CCN(C2=Nc3cc(Cl)ccc3Nc3c(F)cccc32)CC1 [JHU37160, 8-Chloro-11-(4-ethylpiperazin-1-yl)-4-fluoro-5H-dibenzo[b,e][1,4]diazepine] | no responses were observed; also recorded: did not produce any agonistic effect | did not show any functional response | did not show any functional response | 6.45 | 8.48 | 12.9 | 9.72 | 15.4 | ~eightfold higher in the brain than serum | 15.2721 | 2.637 | 9.242 | 1.58 | 8.73 | 0.7534 | 8.1596 | 0.8413 | 3.199 | 0.319 | 18.5 nM |  |

Reference: article PMC6788984, “High-potency ligands for DREADD imaging and activation in rodents and monkeys” (Nature Communications, 2019)
